Data from US20260374766A1, “METHODS FOR TREATING CANCER” (Antares Therapeutics, Inc., priority 2022, published 2026).

How the values were obtained:
H1299 p53 Y220C = assay: Cell Proliferation Assay (CellTiter-Glo, CTG), H1299 p53 Y220C (NClH1299-inducible p53 Y220C); type: cell-based; conditions: Homo sapiens, NCI-H1299, 120 h, CellTiter-Glo, H1299 p53 Y220C, 5 days
In short: (§1)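 NClH1299 lines stably transduced with Tet-inducible p53 Y220C or R273H, plus NUGC3, were treated with compound for 5 days at 250-500 cells/well. IC50 derived from CellTiter-Glo luminescent signal after 10 min room-temperature incubation.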

[1] = biological target: T1, p53 Y220C mutant protein (amino acid residues 94-293) (Homo sapiens, UniProt P04637, Y220C); assay: Surface Plasmon Resonance (SPR) assay, Kd_kinetic; type: binding; conditions: SPR, kinetic KD, p53 Y220C; read-out: SPR P53 Y220C KD kinetic
T1 construct: p53 Y220C mutant protein (amino acid residues 94-293)
In short: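 Temperature held at 16 or 20 °C during Biacore 8K runs. Buffer: 50 mM Tris, pH 7.5, 100 mM NaCl, 1 mM DTT, 0.01% Brij35, 0.05% Tween-20, 1% DMSO.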

p53 Y220C = p53 Y220C (Homo sapiens, UniProt P04637, Y220C); assay: Luciferase Reporter Assay (Luc), p53 response element, NClH1299 cells with inducible p53 Y220C; type: cell-based; conditions: luciferase reporter, NClH1299 inducible p53 Y220C, 6 hour; for Emax: 10 uM tool compound as positive control; for AC50: read-out: Luc P53 Y220C AC50
In short: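 Steps: seed 5,000 cells/well; induce mutant p53 with 0.5 ug/mL doxycycline for 24 h; treat with compound 6 h; add equal volume One-Glo, shake 5 min at room temperature; measure luciferase immediately.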

H1299 p53 R273H = assay: Cell Proliferation Assay (CellTiter-Glo, CTG), H1299 p53 R273H (NClH1299-inducible p53 R273H); type: cell-based; conditions: Homo sapiens, NCI-H1299, 120 h, CellTiter-Glo, H1299 p53 R273H, 5 days
In short: as §1

[2] = biological target: T1, p53 Y220C mutant protein (amino acid residues 94-293); assay: Thermal Shift Assay (TSA), dTM; type: binding; conditions: thermal shift; for ΔTm at 10 µM: 10 uM compound, read-out: TSA P53 Y220C dTM (10 uM); for ΔTm at 100 µM: 100 uM compound, read-out: TSA P53 Y220C dTM (100 uM)
In short: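 5 μM protein + 10 μM or 100 μM cpd, 3 h, 20 °C; 20 mM HEPES pH7.4, 100 mM NaCl, 0.01% Pluronic F-127, 1% DMSO, Sypro Orange 400-fold dil. Ramp 30→50 °C, 0.03 °C/s. TM by Boltzmann two-state fit.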

NUGC3 p53 Y220C = assay: Cell Proliferation Assay (CellTiter-Glo, CTG), NUGC3 p53 Y220C; type: cell-based; conditions: Homo sapiens, NUGC-3, 120 h, CellTiter-Glo, NUGC3 p53 Y220C, 5 days
In short: as §1

IC50 (H1299 p53 Y220C) | Kd [1] | Emax (p53 Y220C) | AC50 (p53 Y220C) | IC50 (H1299 p53 R273H) | ΔTm at 10 µM [2] | ΔTm at 100 µM [2] | SMILES | IC50 (NUGC3 p53 Y220C)
< 0.75 µM | < 0.01 µM | 80 to 90% | < 0.75 µM | 5 to 8 µM | ≥ 10 °C | ≥ 10 °C | CNC(=O)c1ccc(NCC#Cc2nc3c(N[C@H]4CCn5cncc5C4)cccn3c2SC(F)(F)F)c(OC)c1 [Example 177] | 0.75 to 1.5 µM
0.75 to 1.5 µM | 0.01 to 0.1 µM | < 70% | 1.5 to 3 µM | 5 to 8 µM | 5 to 10 °C | 5 to 10 °C | CNC(=O)c1ccc(NCC#Cc2nc3c(N[C@H]4CCn5nccc5C4)cccn3c2SC(F)(F)F)c(OC)c1 [Example 178] | 0.75 to 1.5 µM
1.5 to 3 µM | 0.01 to 0.1 µM | < 70% | 1.5 to 3 µM | ≥ 10 µM | 5 to 10 °C | 5 to 10 °C | CNC(=O)c1ccc(NCC#Cc2nc3c(N[C@@H]4CCn5nccc5C4)cccn3c2SC(F)(F)F)c(OC)c1 [Example 179] | 1.5 to 3 µM
< 0.75 µM | < 0.01 µM | 80 to 90% | < 0.75 µM | 5 to 8 µM | ≥ 10 °C | ≥ 10 °C | CNC(=O)c1ccc(NCC#Cc2nc3c(N[C@@H]4CCN(C)C[C@@H]4F)cc(F)cn3c2SC(F)(F)F)c(OC)c1 [Example 180] | 0.75 to 1.5 µM
0.75 to 1.5 µM | 0.01 to 0.1 µM | 80 to 90% | 1.5 to 3 µM | 5 to 8 µM | 5 to 10 °C | 5 to 10 °C | CNC(=O)c1ccc(NCC#Cc2nc3c(NCC4(F)CN(C)C4)cccn3c2SC(F)(F)F)c(OC)c1 [Example 181] | 1.5 to 3 µM
1.5 to 3 µM | 0.01 to 0.1 µM | 80 to 90% | 1.5 to 3 µM | ≥ 10 µM | 5 to 10 °C | 5 to 10 °C | CNC(=O)c1ccc(NCC#Cc2nc3c(N[C@@H]4CCC(=O)NC4)cccn3c2SC(F)(F)F)c(OC)c1 [Example 182] | 1.5 to 3 µM
1.5 to 3 µM | 0.01 to 0.1 µM | 80 to 90% | 1.5 to 3 µM | ≥ 10 µM | 5 to 10 °C | 5 to 10 °C | CNC(=O)c1ccc(NCC#Cc2nc3c(N[C@H]4CCC(=O)NC4)cccn3c2SC(F)(F)F)c(OC)c1 [Example 183] | 0.75 to 1.5 µM
1.5 to 3 µM | < 0.01 µM | 70 to 80% | 1.5 to 3 µM | 5 to 8 µM | 5 to 10 °C | ≥ 10 °C | CNC(=O)c1ccc(NCC#Cc2nc3c(N[C@H]4Cc5cncn5C4)cccn3c2SC(F)(F)F)c(OC)c1 [Example 184] | 0.75 to 1.5 µM
< 0.75 µM | < 0.01 µM | > 90% | < 0.75 µM | ≥ 10 µM | ≥ 10 °C | – | CNC(=O)c1cc(NCC#Cc2cc3c(N[C@@H]4CCN(C)C[C@@H]4F)nccn3c2SC(F)(F)F)c2nccn2c1 [Example 186, 8-{[3-(1-{[(3S,4R)-3-fluoro-1-methylpiperidin-4-yl]amino}-6-[(trifluoromethyl)sulfanyl]pyrrolo[1,2-a]pyrazin-7-yl)prop-2-yn-1-yl]amino}-N-methylimidazo[1,2-a]pyridine-6-carboxamide] | < 0.75 µM
< 0.75 µM | < 0.01 µM | 80 to 90% | < 0.75 µM | 5 to 8 µM | ≥ 10 °C | ≥ 10 °C | CNC(=O)c1ccc(NCC#Cc2nc3c(N[C@H]4CCC(=O)N(C)C4)cccn3c2SC(F)(F)F)c(OC)c1 [Example 187] | < 0.75 µM
0.75 to 1.5 µM | 0.01 to 0.1 µM | 80 to 90% | 0.75 to 1.5 µM | ≥ 10 µM | 5 to 10 °C | ≥ 10 °C | CNC(=O)c1ccc(NCC#Cc2nc3c(N[C@@H]4CCC(=O)N(C)C4)cccn3c2SC(F)(F)F)c(OC)c1 [Example 188] | 0.75 to 1.5 µM
> 3 µM | < 0.01 µM | < 70% | > 3 µM | ≥ 10 µM | 5 to 10 °C | ≥ 10 °C | CNC(=O)c1ccc(NCC#Cc2nc3c(N[C@H]4CCc5nncn5C4)cccn3c2SC(F)(F)F)c(OC)c1 [Example 191] | > 3 µM
> 3 µM | < 0.01 µM | < 70% | > 3 µM | ≥ 10 µM | ≥ 10 °C | ≥ 10 °C | CNC(=O)c1ccc(NCC#Cc2nc3c(N[C@@H]4CCc5nncn5C4)cccn3c2SC(F)(F)F)c(OC)c1 [Example 192] | > 3 µM
< 0.75 µM | 0.01 to 0.1 µM | 70 to 80% | < 0.75 µM | 8 to 10 µM | ≥ 10 °C | ≥ 10 °C | CNC(=O)c1ccc(OC)c(NCC#Cc2nc3c(N[C@@H]4CCNC[C@@H]4F)cccn3c2SC(F)F)n1 [Example 193] | < 0.75 µM
< 0.75 µM | < 0.01 µM | > 90% | < 0.75 µM | 5 to 8 µM | ≥ 10 °C | 5 to 10 °C | CNC(=O)c1ccc(OC)c(NCC#Cc2nn3c(N[C@@H]4CCN(C)C[C@@H]4F)cccc3c2SC(F)F)c1 [Example 194] | < 0.75 µM
< 0.75 µM | < 0.01 µM | 80 to 90% | < 0.75 µM | 5 to 8 µM | ≥ 10 °C | ≥ 10 °C | CNC(=O)c1ccc(OC)c(NCC#Cc2nn3c(N[C@@H]4CCNC[C@@H]4F)cccc3c2SC(F)F)c1 [Example 195] | < 0.75 µM
< 0.75 µM | < 0.01 µM | > 90% | < 0.75 µM | ≥ 10 µM | ≥ 10 °C | ≥ 10 °C | CNC(=O)c1ccc(NCC#Cc2cc3c(N[C@@H]4CCN(C)C[C@@H]4F)nccn3c2SC(F)F)c(OC)c1 [Example 196, 4-[(3-{6-[(difluoromethyl)sulfanyl]-1-{[(3S,4R)-3-fluoro-1-methylpiperidin-4-yl]amino}pyrrolo[1,2-a]pyrazin-7-yl}prop-2-yn-1-yl)amino]-3-methoxy-N-methylbenzamide; formic acid] | < 0.75 µM
> 3 µM | 0.01 to 0.1 µM | 80 to 90% | > 3 µM | ≥ 10 µM | 5 to 10 °C | ≥ 10 °C | CNC(=O)c1ccc(NCC#Cc2nc3c(NCC4(F)CNC4)cccn3c2SC(F)(F)F)c(OC)c1 [Example 197] | > 3 µM
< 0.75 µM | < 0.01 µM | 70 to 80% | < 0.75 µM | < 5 µM | ≥ 10 °C | ≥ 10 °C | CNC(=O)c1ccc(OC)c(NCC#Cc2nc3c(N[C@@H]4C[C@H]5CC[C@@H]([C@@H]4F)N5C)cccn3c2SC(F)(F)F)c1 [Example 199] | < 0.75 µM
< 0.75 µM | < 0.01 µM | 70 to 80% | < 0.75 µM | ≥ 10 µM | ≥ 10 °C | ≥ 10 °C | CNC(=O)c1ccc(OC)c(NCC#Cc2nc3c(N[C@H]4C[C@@H]5CC[C@H]([C@H]4F)N5C)cccn3c2SC(F)(F)F)c1 [Example 200] | < 0.75 µM
< 0.75 µM | < 0.01 µM | 80 to 90% | < 0.75 µM | 5 to 8 µM | ≥ 10 °C | ≥ 10 °C | CNC(=O)c1ccc(NCC#Cc2nc3c(N[C@H]4C[C@@H]5CC[C@@H](N5)[C@H]4F)cccn3c2SC(F)(F)F)c(OC)c1 [Example 201] | < 0.75 µM
< 0.75 µM | < 0.01 µM | 70 to 80% | < 0.75 µM | 8 to 10 µM | ≥ 10 °C | ≥ 10 °C | CNC(=O)c1ccc(OC)c(NCC#Cc2nc3c(N[C@@H]4C[C@H]5CC[C@H](N5)[C@@H]4F)cccn3c2SC(F)(F)F)c1 [Example 202] | < 0.75 µM
< 0.75 µM | < 0.01 µM | 70 to 80% | < 0.75 µM | 5 to 8 µM | ≥ 10 °C | ≥ 10 °C | CNC(=O)c1ccc(OC)c(NCC#Cc2nc3c(N[C@H]4C[C@@H]5CC[C@@H](N5)[C@H]4F)cccn3c2SC(F)(F)F)c1 [Example 203] | < 0.75 µM
